{"source": "patent US20120022032A1", "about": "“CORTICOSTEROID COMPOSITIONS AND METHODS OF TREATMENTS THEREOF” (priority 2008, published 2012)", "assay_type_in_all_cases": "physicochemical", "key": {"[1]": {"assay": "Effect of additives on MF solubility in 0.2 M Captisol solution", "details": "aqueous with cosolvent or surfactant or cyclodextrin", "protocol": "A stock solution of 0.2 M Captisol (SBE beta cyclodextrin) was prepared. Table 5 and FIG. 4 list the effect of various additives on the MF solubility of this solution: […]"}, "[2]": {"assay": "MF solubility in cyclodextrin solutions", "details": "3 mM citrate buffer pH 4.5"}, "[3]": {"assay": "Microemulsion equilibrium solubility determination of mometasone furoate", "details": "POLOXAMER 407-based microemulsion, aqueous with cosolvent or surfactant or cyclodextrin, thermodynamic from solid, microemulsion: ethyl laurate 5% w/w, POLOXAMER 407 10% w/w; read-out: MF Solubility"}, "[4]": {"assay": "Microemulsion equilibrium solubility determination of mometasone furoate", "details": "for concentration of mometasone furoate achieved: 5% MIGLYOL; for solubility at 72 h: SOLUTOL HS-15-based microemulsion, aqueous with cosolvent or surfactant or cyclodextrin, thermodynamic from solid", "protocol": "The equilibrium solubility of mometasone furoate is determined in SOLUTOL® HS-15-based microemulsion composition composed of 20% of SOLUTOL® HS-15 with varying amounts of different oils (FIG. 2, Table 2). An excess amount of the drug is added in the solutions after water had been added. The vials is shaken over a 72 hour period. The solutions is centrifuged and filtered at various time intervals prior to analysis of the samples by HPLC. The drug solubility ranged from 300 mcg/ml to 600 mcg/g. Alternative oils are also explored (Table 3).\nThe concentration was ˜519 mcg/ml in a similar composition where PBS was replaced with water. To achieve a concentration of exactly 500 mcg/ml, roughly 5 mg of the drug was weighed and added to a mixture of 2 g of SOLUTOL® HS-15 and 0.5 g of MIGLYOL® 812, that was previously mixed using a magnetic stir bar. After the drug was dissolved in the pre-concentrate, 7.5 g of distilled water was added to the above mix to formulate a microemulsion of mometasone furoate."}, "[5]": {"assay": "MF solubility in cyclodextrin solutions", "details": "3 mM citrate buffer pH 4.5", "protocol": "Compositions of mometasone furoate 6 mg/ml were prepared in duplicate with a 0.05, […], and 0.2 M of four different cyclodextrins: an unsubstituted gamma cyclodextrin, a sulfobutyl ether (SBE) beta cyclodextrin (Captisol), and two substituted SBE gamma cyclodextrins. Only 0.05 and 0.1M cyclodextrins were evaluated for the unsubstituted gamma cyclodextrin. All compositions were prepared in a 3 mM citrate buffer at a pH of 4.5. The compositions were placed on a roller mixer (Stuart Scientific SRT233 rpm rise/fall 16 mm) protected from light and mixed for about three days. After the three day equilibration, the compositions were filtered using a 0.22 micrometer PVDF syringe filter and analyzed by HPLC.", "remark": "listed apart in the source"}, "[6]": {"assay": "Micellar solubility determination of MF in 10% surfactant solutions in water", "details": "for solubility: 10% w/w excipient solution in water, aqueous with cosolvent or surfactant or cyclodextrin, thermodynamic from solid", "protocol": "To determine the solubility of MF in various solutions, various MF solutions are prepared by measuring each excipient into a beaker at a 10% w/w concentration. If needed, the excipients are melted using a water bath maintained at 65° C. for approximately 30 minutes. The composition is q.s. to 50 g with water and mixed with an overhead/lightening mixer. Approximately 50-60 mg of anhydrous mometasone furoate anhydrous is added into each mixture. The solutions are mixed at a low speed on a shaker (Eberbacher) for about 48 to about 72 hours. Approximately 20 mL of each suspension are removed and centrifuged at 1200 rpm for 12 minutes. Approximately 5 mL of the supernatant is filtered using a 0.22 μm syringe filter. A 1 mL sample is taken from each filtered sample, diluted, and assayed using an HPLC."}, "[7]": {"details": "anhydrous MF, 10% w/w CREMOPHOR RH 40 (polyoxyl 40 hydrogenated castor oil) in water"}, "[8]": {"details": "anhydrous MF, 10% w/w SOLUTOL HS 15 (polyethylene glycol 660-12 hydroxystearate) in water"}, "[9]": {"details": "anhydrous MF, 10% w/w TWEEN 80 (polysorbate 80) in water"}}, "note": "Read-outs that look alike come from different tables or passages of the source.", "data": [{"smiles": "C[C@@H]1C[C@H]2[C@@H]3CCC4=CC(=O)C=C[C@]4(C)[C@@]3(Cl)[C@@H](O)C[C@]2(C)[C@@]1(OC(=O)c1ccco1)C(=O)CCl", "note": "[MF, mometasone furoate]", "values": [{"measurement": "solubility", "setting": "[1]; 0.2 M Captisol + 0.01% w/v Polysorbate 80", "value": 235, "unit": "µg/mL"}, {"measurement": "solubility", "setting": "[1]; 0.2 M Captisol + 0.02% w/v Benzalkonium Chloride", "value": 243, "unit": "µg/mL"}, {"measurement": "solubility", "setting": "[1]; 0.2 M Captisol + 0.1% w/v HPMC", "value": 258, "unit": "µg/mL"}, {"measurement": "solubility", "setting": "[1]; 0.2 M Captisol + 0.1% w/v Na-CMC", "value": 242, "unit": "µg/mL"}, {"measurement": "solubility", "setting": "[1]; 0.2 M Captisol + 0.1% w/v PVP-30", "value": 290, "unit": "µg/mL"}, {"measurement": "solubility", "setting": "[1]; 0.2 M Captisol + 1% v/v EtOH", "value": 236, "unit": "µg/mL"}, {"measurement": "solubility", "setting": "[1]; 0.2 M Captisol + 2.1% w/v Glycerin", "value": 220, "unit": "µg/mL"}, {"measurement": "solubility", "setting": "[1]; 0.2 M Captisol + 10% v/v EtOH", "value": 121, "unit": "µg/mL"}, {"measurement": "solubility", "setting": "[1]; 0.2 M Captisol + 10% w/v Propylene Glycol", "value": 107, "unit": "µg/mL"}, {"measurement": "Concentration of MF in solutions with cyclodextrins", "setting": "[2]; Captisol (SBE beta-CD) 0.1M", "value": 152, "unit": "µg/mL"}, {"measurement": "Concentration of MF in solutions with cyclodextrins", "setting": "[2]; SBE(6.1) gamma-CD 0.1M", "value": 626, "unit": "µg/mL"}, {"measurement": "Concentration of MF in solutions with cyclodextrins", "setting": "[2]; SBE(6.2) gamma-CD 0.1M", "value": 569, "unit": "µg/mL"}, {"measurement": "solubility at 72 h", "setting": "[3]", "value": 90, "unit": "µg/mL"}, {"measurement": "concentration of mometasone furoate achieved", "setting": "[4]; 20% w/w SOLUTOL HS-15, 75% phosphate buffer system (PBS)", "value": 538, "unit": "µg/mL"}, {"measurement": "concentration of mometasone furoate achieved", "setting": "[4]; 20% w/w SOLUTOL HS-15, PBS replaced with water", "value": "~519", "unit": "µg/mL"}, {"measurement": "solubility at 72 h", "setting": "[4]; 20% SOLUTOL HS-15 microemulsions with varying amounts of different oils, 72 hour shaking, read-out: drug solubility (equilibrium)", "value": "300 to 600", "unit": "µg/mL"}, {"measurement": "solubility at 72 h", "setting": "[4]; microemulsion Example 1: MIGLYOL 812 4% w/w, SOLUTOL HS 15 20% w/w, read-out: Solubilized MF", "value": 502, "unit": "µg/mL"}, {"measurement": "solubility at 72 h", "setting": "[4]; microemulsion Example 2: MIGLYOL 812 5% w/w, SOLUTOL HS 15 20% w/w, read-out: Solubilized MF", "value": 538, "unit": "µg/mL"}, {"measurement": "solubility at 72 h", "setting": "[4]; microemulsion Example 4: MIGLYOL 840 4% w/w, SOLUTOL HS 15 20% w/w, read-out: Solubilized MF", "value": 540, "unit": "µg/mL"}, {"measurement": "solubility at 72 h", "setting": "[4]; microemulsion Example 5: CAPRYOL 3% w/w, SOLUTOL HS 15 20% w/w, read-out: Solubilized MF", "value": 422, "unit": "µg/mL"}, {"measurement": "solubility at 72 h", "setting": "[4]; microemulsion Example 6: corn oil 3% w/w, SOLUTOL HS 15 20% w/w, read-out: Solubilized MF", "value": 408, "unit": "µg/mL"}, {"measurement": "solubility at 72 h", "setting": "[4]; microemulsion Example 7: oleic acid 2% w/w, SOLUTOL HS 15 20% w/w, read-out: Solubilized MF", "value": 323, "unit": "µg/mL"}, {"measurement": "solubility at 72 h", "setting": "[4]; microemulsion Example 8: soybean oil 1% w/w, SOLUTOL HS 15 20% w/w, read-out: Solubilized MF", "value": 375, "unit": "µg/mL"}, {"measurement": "solubility at 72 h", "setting": "[4]; microemulsion Example 9: soybean oil 2% w/w, SOLUTOL HS 15 20% w/w, read-out: Solubilized MF", "value": 397, "unit": "µg/mL"}, {"measurement": "solubility at 72 h", "setting": "[4]; microemulsion: ethyl laurate 5% w/w, polyethylene glycol 660-12 hydroxystearate 20% w/w, read-out: MF Solubility", "value": 540, "unit": "µg/mL"}, {"measurement": "drug concentration determined by HPLC", "setting": "[4]; about 5 mg drug dissolved in 2 g SOLUTOL HS-15 + 0.5 g MIGLYOL 812, then 7.5 g distilled water, target 500 mcg/ml", "value": 500, "unit": "µg/mL"}, {"measurement": "Concentration of MF in solutions with cyclodextrins", "setting": "[5]; Captisol (SBE beta-CD) 0.05M, three day equilibration", "value": 84, "unit": "µg/mL"}, {"measurement": "Concentration of MF in solutions with cyclodextrins", "setting": "[5]; Captisol (SBE beta-CD) 0.2M", "value": 261, "unit": "µg/mL"}, {"measurement": "Concentration of MF in solutions with cyclodextrins", "setting": "[5]; SBE(6.1) gamma-CD 0.05M", "value": 262, "unit": "µg/mL"}, {"measurement": "Concentration of MF in solutions with cyclodextrins", "setting": "[5]; SBE(6.1) gamma-CD 0.2M", "value": 1840, "unit": "µg/mL"}, {"measurement": "Concentration of MF in solutions with cyclodextrins", "setting": "[5]; SBE(6.2) gamma-CD 0.05M", "value": 250, "unit": "µg/mL"}, {"measurement": "Concentration of MF in solutions with cyclodextrins", "setting": "[5]; SBE(6.2) gamma-CD 0.2M", "value": 1940, "unit": "µg/mL"}, {"measurement": "Concentration of MF in solutions with cyclodextrins", "setting": "[5]; unsubstituted gamma-CD 0.05M", "value": 117, "unit": "µg/mL"}, {"measurement": "Concentration of MF in solutions with cyclodextrins", "setting": "[5]; unsubstituted gamma-CD 0.1M", "value": 249, "unit": "µg/mL"}, {"measurement": "solubility", "setting": "[6]; 10% Vitamin E TPGS in water", "value": "~500", "unit": "µg/mL"}, {"measurement": "solubility", "setting": "[6]; [7]", "value": "180 to 200", "unit": "µg/mL"}, {"measurement": "solubility", "setting": "[6]; anhydrous MF, 10% w/w LUTROL F127 (poloxamer 407) in water", "value": 27, "unit": "µg/mL"}, {"measurement": "solubility", "setting": "[6]; [8]", "value": "180 to 200", "unit": "µg/mL"}, {"measurement": "solubility", "setting": "[6]; [9]", "value": "180 to 200", "unit": "µg/mL"}, {"measurement": "solubility", "setting": "[6]; anhydrous MF, 10% w/w Vitamin E TPGS (d-α tocopheryl PEG 1000 succinate) in water", "value": 499, "unit": "µg/mL"}, {"measurement": "solubility", "setting": "[6]; solutions with 10% polyoxamers", "value": "< 30", "unit": "µg/mL"}, {"measurement": "solubility", "setting": "[6]; solutions with 10% polyvinylpyrrolidones", "value": "< 30", "unit": "µg/mL"}, {"measurement": "MF Solubility", "setting": "[6]; [7]", "value": 189, "unit": "µg/mL"}, {"measurement": "MF Solubility", "setting": "[6]; [8]", "value": 184, "unit": "µg/mL"}, {"measurement": "MF Solubility", "setting": "[6]; [9]", "value": 199, "unit": "µg/mL"}]}]}
